# From patent publication US7229762B2, “Proteomic screening for redox state dependent protein—protein interactions” (Duke University Medical Center, priority 2003, dated 2007)
# How the values were obtained:
# [1] = molecular target: T1, caspase-3/ASM interaction (Homo sapiens, UniProt P42574); experiment: In vitro ASM/caspase-3 co-precipitation, ASM activity in caspase-3 IPs; type: binding; conditions: 20 μM DETA-NO 60 min, then ASM 37° C. 2 hrs
# T1 sequence (P42574 29-277): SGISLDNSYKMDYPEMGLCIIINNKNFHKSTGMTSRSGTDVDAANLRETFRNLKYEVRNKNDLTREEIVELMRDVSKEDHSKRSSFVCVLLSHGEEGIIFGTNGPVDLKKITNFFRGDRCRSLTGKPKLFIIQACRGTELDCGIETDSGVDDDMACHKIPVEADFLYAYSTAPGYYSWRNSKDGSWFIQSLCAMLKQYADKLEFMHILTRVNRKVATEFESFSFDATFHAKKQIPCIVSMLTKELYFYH
# T1 sequence (P17405 47-631 partner): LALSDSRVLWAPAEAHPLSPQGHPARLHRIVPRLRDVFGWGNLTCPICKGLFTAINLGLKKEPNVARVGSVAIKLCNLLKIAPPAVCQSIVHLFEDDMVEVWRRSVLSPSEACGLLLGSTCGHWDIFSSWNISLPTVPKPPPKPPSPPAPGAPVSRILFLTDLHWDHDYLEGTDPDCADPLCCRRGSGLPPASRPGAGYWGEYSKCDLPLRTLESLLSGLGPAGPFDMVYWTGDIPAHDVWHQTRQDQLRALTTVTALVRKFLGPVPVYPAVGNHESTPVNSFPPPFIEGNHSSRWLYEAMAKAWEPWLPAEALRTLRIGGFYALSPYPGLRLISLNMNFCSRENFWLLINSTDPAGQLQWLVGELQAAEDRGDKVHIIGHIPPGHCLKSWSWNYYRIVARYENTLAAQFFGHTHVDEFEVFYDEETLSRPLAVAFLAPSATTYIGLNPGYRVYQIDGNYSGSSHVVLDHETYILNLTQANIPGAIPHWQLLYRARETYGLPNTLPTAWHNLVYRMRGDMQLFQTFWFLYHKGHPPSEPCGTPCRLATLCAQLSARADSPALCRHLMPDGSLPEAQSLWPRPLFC
# Procedure: ASM activity was measured essentially as described (E. Romiti et al., 2000), using BODIPY FL C5-sphingomyelin substrate (1.5 nmol) in assay buffer: 250 mM sodium acetate, pH 5.0, 10 mM EDTA. To assay Zn-stimulated ASM activity, 0.1 mM ZnCl was used instead of 10 mM EDTA. 30 μl sample was incubated with 70 μl assay buffer at 37° C. for 1–3 hours. Reactions were terminated by adding 1.0 ml heptane and 0.29 ml isopropyl alcohol. Phases were separated by adding 0.23 ml H2O. The heptane phase was washed with 0.23 ml H2O. The fluorescence of the organic phase (containing BODIPY FL-ceramide) was assayed at 505/514 nm excitation/emission wavelengths (slit width=2.5). […]
# Purified caspase-3 was incubated in the presence or absence 20 μM DETA-NO for 60 min (30 nM steady state NO), followed by incubation with ASM at 37° C. for 2 hrs, and IP with caspase-3 antibody. […] The interaction of caspase-3 with ASM was measured as ASM activity in caspase-3 IP's (pH 5.0). […]
# To determine the relevant target(s) of NO, ASM/caspase-3 co-precipitations were carried out following NO treatment of each partner alone. Using an ASM activity assay, the amounts of ASM that could be precipitated with a procaspase-3 antibody was assessed from co-incubates (2 hours at 37° C.) of ASM (20 pmol) and caspase-3 in limiting amounts (2.5 pmol). […]
# [2] = molecular target: T2, caspase-3 interaction with iNOS / ASM (Homo sapiens, UniProt P42574); experiment: Modified yeast two-hybrid, NO-dependent growth of iNOS/caspase-3 and ASM/caspase-3 clones; type: cell-based; conditions: iNOS/caspase-3 clone, presence vs absence of NO
# T2 construct: expressed in transfected cells; host or cells: Saccharomyces cerevisiae CG-1945 Δyhb1
# T2 sequence (P42574 1-277): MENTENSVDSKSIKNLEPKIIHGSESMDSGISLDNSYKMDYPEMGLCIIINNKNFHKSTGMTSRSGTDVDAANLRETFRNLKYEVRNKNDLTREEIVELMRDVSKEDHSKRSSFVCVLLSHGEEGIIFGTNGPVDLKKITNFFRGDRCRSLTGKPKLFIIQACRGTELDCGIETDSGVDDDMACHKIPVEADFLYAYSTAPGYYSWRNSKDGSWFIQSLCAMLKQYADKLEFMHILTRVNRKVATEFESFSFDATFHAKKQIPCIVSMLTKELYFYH
# Procedure: Yeast (Δyhb1) were transformed with Gal4 BD-caspase-3 plasmid (bait) and a cDNA library (Gal4 AD prey plasmids) derived from activated (NO generating) macrophages. Screening was performed as described in the methods below. DETA-NO at less than 300 μM generates NO without inhibiting yeast growth (monitored by absorbance at 600 nm). Steady state NO concentrations are maintained at ˜100 nM–1 μM range for several days as measured with an NO electrode (not shown).
# Auxotrophic selection was carried out on agar plates (15 cm in diameter) enriched in 50 mM phosphate buffer (pH 7.2; His-Trp-Leu (triple)-deficient buffered medium (TDBM)). […] Prey plasmids were isolated from positive yeast clones and then re-introduced into the bait strain to confirm bait-prey interactions. Method 2: After cells were seeded on 1.5% agar they were covered with 3% low melting point agar, which in turn was layered with culture medium. NO donors (e.g. DETA-NO; 300 μM final concentration) were added to the liquid layer every 24 hours. Colonies are grown for 4 days as described in ref 9. Method 3:
# Auxotrophic selection was carried out in TDBM. Transformation with the cDNA library was followed by overnight growth in medium deficient in tryptophan and leucine. Transformants were then grown for 3 days in His-deficient medium supplemented with DETA-NO (typically 200 μM final concentration). […]
# [3] = molecular target: T3, ASM (Homo sapiens, UniProt P17405); experiment: ASM activity assay of purified ASM (BODIPY FL C5-sphingomyelin); type: biochemical; conditions: DETA-NO 50 μM–200 μM, 30 or 60 min, pH 5.0
# T3 sequence (P17405 47-631): T1 sequence (P17405 47-631 partner)
# Procedure: ASM activity was measured essentially as described (E. Romiti et al., 2000), using BODIPY FL C5-sphingomyelin substrate (1.5 nmol) in assay buffer: 250 mM sodium acetate, pH 5.0, 10 mM EDTA. To assay Zn-stimulated ASM activity, 0.1 mM ZnCl was used instead of 10 mM EDTA. 30 μl sample was incubated with 70 μl assay buffer at 37° C. for 1–3 hours. Reactions were terminated by adding 1.0 ml heptane and 0.29 ml isopropyl alcohol. Phases were separated by adding 0.23 ml H2O. The heptane phase was washed with 0.23 ml H2O. The fluorescence of the organic phase (containing BODIPY FL-ceramide) was assayed at 505/514 nm excitation/emission wavelengths (slit width=2.5).
# Purified ASM protein (3.4 μg) was treated with DETA-NO (50 μM–200 μM for 30 or 60 min) and ASM activity was measured at pH 5.0 (n=3).
# [4] = molecular target: T4, AIF/MIP-1α interaction (UniProt O95831+P10855); experiment: Modified yeast two-hybrid, NO-dependent growth of AIF/MIP-1α clone; type: cell-based; conditions: 200 μM DETA-NO, 72 hrs
# T4 construct: The entire open reading frame of AIF was derived from I.M.A.G.E. clones 1520292 and 25192; expressed in transfected cells; host or cells: Saccharomyces cerevisiae Δyhb1
# Procedure: Yeast (Δyhb1) were transformed with Gal4 BD-AIF (Bait) and Gal4 AD-MIP-1α (Prey). (A) Robust growth of the AIF/MIP-1α clone requires NO (single asterisk, P<0.001 versus AIF/MIP-1α without NO) (n=6). […] Cells were grown in His-Trp-Leu-deficient medium at 30° C. for 72 hrs with or without 200 μM DETA-NO. (B) β-galactosidase activities in samples shown in A (single asterisk, P<0.001 vs. without NO, n=4).
# To extend the generality of our findings, 2.5 million transformants were screened from our macrophage cDNA library for NO-dependent interactions, using apoptosis-inducing factor (AIF) as bait. AIF is implicated in cell death that is independent of caspase-3, and is not known to be regulated by NO (Lipton et al., 2002). […] One of these clones contained the entire cDNA sequence of the chemokine, macrophage inflammatory protein-1 alpha (MIP-1α). Since this clone contained a few extra amino acids derived from a linker sequence, the full length MIP-1α coding sequence was amplified by PCR and cloned into the pGAD 10 vector, whose NO-dependent interaction with AIF was verified.
# T4 sequence (O95831 102-613): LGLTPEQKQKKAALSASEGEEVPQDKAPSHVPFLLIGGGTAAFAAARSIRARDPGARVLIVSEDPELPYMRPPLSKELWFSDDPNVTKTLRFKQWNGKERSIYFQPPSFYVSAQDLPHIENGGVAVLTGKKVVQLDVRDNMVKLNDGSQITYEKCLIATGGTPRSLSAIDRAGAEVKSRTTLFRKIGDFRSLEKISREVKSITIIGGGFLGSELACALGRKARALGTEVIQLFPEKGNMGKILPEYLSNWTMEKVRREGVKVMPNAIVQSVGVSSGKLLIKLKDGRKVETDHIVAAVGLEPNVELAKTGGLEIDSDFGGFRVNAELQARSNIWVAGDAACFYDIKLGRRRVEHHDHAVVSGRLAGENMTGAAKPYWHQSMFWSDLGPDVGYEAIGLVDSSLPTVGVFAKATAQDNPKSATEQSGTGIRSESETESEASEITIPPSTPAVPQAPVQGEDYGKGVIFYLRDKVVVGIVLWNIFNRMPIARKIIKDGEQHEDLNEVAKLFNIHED
# T4 sequence (P10855 24-92): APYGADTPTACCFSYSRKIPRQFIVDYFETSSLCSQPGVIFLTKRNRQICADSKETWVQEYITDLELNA
smiles,measurement,setting,value
"[N]=O [NO, nitric oxide]",binding of ASM to caspase-3 pretreated with NO,[1],induces binding of ASM
same,NO-dependent growth of iNOS transformant,[2],~9 fold
same,effect on ASM activity,[3],no direct effect on ASM activity
same,increase in growth in the presence of NO,[4],8 fold
